Four molecules from US8227604B2, “Hybrid 2-aminotetralin and aryl-substituted piperazine compounds and their use in altering CNS activity” (Wayne State University, priority 2001, dated 2012) can be followed below.

For one data set, the target named is T1, D1 receptor (Homo sapiens, UniProt P21728).
T1 construct: expressed in transfected cells; host or cells: LHD1 cells
The data set is described as follows: Binding affinity at cloned human D1 receptor, [3H]SCH23390 (LHD1 cells). As for the experimental part:
LHD1 cells (human receptor) are grown and prepared as described for the HA7 cells as described hereafter. The final pellet is resuspended at 5 mg protein/80 ml in 50 mM Tris-HCl containing 120 mM of NaCl, 5 mM of KCl, 2 mM of CaCl2, and 1 mM of MgCl2, pH 7.4. To wells containing 100 μl of test drug or buffer and […] of [^3H]SCH 23390 (0.18 nM final conc.), is added 0.8 ml of cell homogenate (0.05 mg protein/well), and the plates are incubated at […] for 60 min. Nonspecific binding is determined with 1 μM of SCH 23390.

The next data set has as its target T2, 5HT2C receptor (Homo sapiens, UniProt P28335).
T2 construct: expressed in transfected cells
T2 sequence (P28335 33-458): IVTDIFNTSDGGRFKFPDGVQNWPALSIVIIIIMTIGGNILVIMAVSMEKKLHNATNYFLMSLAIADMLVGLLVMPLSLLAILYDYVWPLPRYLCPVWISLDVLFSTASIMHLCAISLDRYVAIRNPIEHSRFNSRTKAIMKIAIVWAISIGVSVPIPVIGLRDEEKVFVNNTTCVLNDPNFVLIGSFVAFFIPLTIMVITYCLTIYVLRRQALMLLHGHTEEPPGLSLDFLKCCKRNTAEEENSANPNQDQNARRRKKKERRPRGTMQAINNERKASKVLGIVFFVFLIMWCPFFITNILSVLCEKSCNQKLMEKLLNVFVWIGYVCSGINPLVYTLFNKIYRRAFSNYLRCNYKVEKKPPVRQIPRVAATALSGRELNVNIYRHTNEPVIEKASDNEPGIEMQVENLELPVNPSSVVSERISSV
The data set is described as follows: Binding affinity at cloned human 5HT2C receptor, [3H]Mesulergine.

The target in another data set is T3, D2L receptor (Homo sapiens, UniProt P14416).
T3 construct: expressed in transfected cells; host or cells: HEK cells
T3 sequence (P14416 whole entry): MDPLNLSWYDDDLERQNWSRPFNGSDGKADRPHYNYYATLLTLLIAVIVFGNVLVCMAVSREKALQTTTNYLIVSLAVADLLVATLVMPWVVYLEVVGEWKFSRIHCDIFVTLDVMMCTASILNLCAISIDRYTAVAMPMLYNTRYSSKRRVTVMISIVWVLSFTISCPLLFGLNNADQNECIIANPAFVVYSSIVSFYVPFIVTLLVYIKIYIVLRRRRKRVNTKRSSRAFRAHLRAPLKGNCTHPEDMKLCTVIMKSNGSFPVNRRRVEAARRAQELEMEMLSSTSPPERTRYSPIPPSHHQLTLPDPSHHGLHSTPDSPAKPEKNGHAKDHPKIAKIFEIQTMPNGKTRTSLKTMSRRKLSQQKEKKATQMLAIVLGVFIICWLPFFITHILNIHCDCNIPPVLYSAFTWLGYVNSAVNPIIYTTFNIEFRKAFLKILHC
In words: Inhibition constants for binding to cloned D2L receptor expressed in HEK cells, [3H]spiperone. As for the experimental part: (§1) Inhibition constants for binding to cloned D2L and D3 receptors expressed in HEK cells by displacing [^3H] spiperone were measured for several compounds.

The target of a further data set is T4, D4 receptor (Homo sapiens, UniProt P21917).
T4 sequence (P21917 1-419): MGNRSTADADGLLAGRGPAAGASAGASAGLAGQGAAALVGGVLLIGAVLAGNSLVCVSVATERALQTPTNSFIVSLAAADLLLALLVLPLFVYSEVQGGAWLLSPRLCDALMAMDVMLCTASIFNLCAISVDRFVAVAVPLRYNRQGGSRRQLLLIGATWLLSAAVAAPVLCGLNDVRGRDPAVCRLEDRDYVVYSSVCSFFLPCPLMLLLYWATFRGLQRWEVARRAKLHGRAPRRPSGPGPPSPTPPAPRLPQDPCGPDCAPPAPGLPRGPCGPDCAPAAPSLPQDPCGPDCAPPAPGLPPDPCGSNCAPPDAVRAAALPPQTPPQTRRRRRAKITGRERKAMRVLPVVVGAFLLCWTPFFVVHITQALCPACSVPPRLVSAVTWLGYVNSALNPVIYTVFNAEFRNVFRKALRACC
The data set is described as follows: Agonist potency by [3H]thymidine incorporation (mitogenesis), D4. The format is cell-based. Also on record: expressed in transfected cells. The settings on record: for EC50 / D4 % Maxm Stim: [3H]thymidine incorporation; for D4 % Maxm Stim: >80% full agonist. As for the experimental part:
(§2) Potential as domaminergenic agonists was assayed by ^3H-thymidine incorporation by standard techniques.
The mitogenesis study results presented in Table 7 assay the ability of these ligands to act as agonists or antagonists. The EC50 values thus indicate intrinsic activities or functional activities of these compounds. The value of % maximum stimulation indicates whether a compound is a partial agonist or full agonist. Generally, a value greater than 80% is considered as a full agonist and anything less than 80% is considered as a partial agonist. A compound will be considered antagonist if it produces a negative result (no [3H]thymidine incorporation) in the assay. All the compounds reported in Table 7 are either full agonists or partial agonists.
(In general: Dividing cells build labelled thymidine or BrdU into new DNA.)

The target of data set [1] is T5, D3 receptor (Homo sapiens, UniProt P35462). The data set is described as follows: Agonist potency by [3H]thymidine incorporation (mitogenesis), D3. The format is cell-based. Also noted: expressed in transfected cells; host or cells: CHOp-D3 cells. The settings on record: for EC50 / Emax: [3H]thymidine incorporation; for Emax: >80% full agonist, read-out: D3 % Maxm Stim. As for the experimental part: as §2
T5 sequence (P35462 whole entry): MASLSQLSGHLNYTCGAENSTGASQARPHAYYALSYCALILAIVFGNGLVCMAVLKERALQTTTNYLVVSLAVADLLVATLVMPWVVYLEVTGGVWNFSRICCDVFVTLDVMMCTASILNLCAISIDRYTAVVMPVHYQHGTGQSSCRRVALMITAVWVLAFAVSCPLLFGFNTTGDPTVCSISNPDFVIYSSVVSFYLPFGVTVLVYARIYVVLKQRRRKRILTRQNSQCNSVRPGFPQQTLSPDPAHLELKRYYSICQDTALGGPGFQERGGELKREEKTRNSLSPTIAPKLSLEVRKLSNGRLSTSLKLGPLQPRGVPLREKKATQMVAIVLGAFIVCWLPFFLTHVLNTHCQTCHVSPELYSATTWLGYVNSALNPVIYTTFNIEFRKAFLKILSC
The EC50 values thus indicate intrinsic activities or functional activities of these compounds. The value of % maximum stimulation indicates whether a compound is a partial agonist or full agonist. Generally, a value greater than 80% is considered as a full agonist and anything less than 80% is considered as a partial agonist.

For data set [2], the target named is T5, D3 receptor. The data set is described as follows: Inhibition constants for binding to cloned D3 receptor expressed in HEK cells, [3H]spiperone. As to conditions: D3 expressed in HEK cells. As for the experimental part: as §1

The term Ki denotes a dissociation constant, usually derived from enzyme kinetics or from competition with a known ligand. High values mean weaker binding, low ones tighter binding. Usually EC50 stands for the midpoint of the concentration-response curve. As usually defined, the melting point is the temperature, or range, at which the solid turns liquid.

The structures appear in SMILES notation.

T1 sequence (P21728 whole entry): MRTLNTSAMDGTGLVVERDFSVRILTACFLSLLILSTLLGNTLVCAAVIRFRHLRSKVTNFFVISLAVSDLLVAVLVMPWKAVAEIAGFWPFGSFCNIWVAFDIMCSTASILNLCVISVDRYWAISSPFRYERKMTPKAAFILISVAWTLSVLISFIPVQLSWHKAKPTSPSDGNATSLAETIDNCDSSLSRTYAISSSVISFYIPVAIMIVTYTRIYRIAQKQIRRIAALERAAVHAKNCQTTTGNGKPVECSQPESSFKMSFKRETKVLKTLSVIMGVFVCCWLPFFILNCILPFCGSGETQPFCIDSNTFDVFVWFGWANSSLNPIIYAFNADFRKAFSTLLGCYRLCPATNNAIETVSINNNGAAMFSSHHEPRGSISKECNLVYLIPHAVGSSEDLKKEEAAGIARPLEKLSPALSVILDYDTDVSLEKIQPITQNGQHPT

Take `N#CCCCN(CCCCN1CCN(c2ccccc2)CC1)C1CCc2ccc(O)cc2C1` (stereo not shown) [Compound 8, 7-Hydroxy-2-[N-butyonitrile-(N-(4-phenylpiperazin-1-yl)-butyl)amino]tetralin]: the Ki at D1 receptor was 3218 ± 7.77 nM; at 5HT2C receptor it was above 10000 nM; at D2L receptor it was 622 ± 102 nM. The results for the concentration for a half-maximal effect (EC50) on D4 receptor and at D3 receptor [1] were 54.8 ± 18.6 nM and 68.1 ± 36.7 nM, respectively. Besides, the Emax on D3 receptor [1] is 67.1 ± 1.93%.

The molecule `O=C(NCCCCN(CCCCN1CCN(c2ccccc2)CC1)C1CCc2ccc(O)cc2C1)c1ccccc1` (stereo not shown) [Compound 10a, 7-Hydroxyl-2-[N-(4-benzoylaminobutyl)-(N-(4-phenylpiperazin-1-yl)-butyl)amino]tetralin] yielded a melting point of 70 to 71 °C. The inhibition constant (Ki) at D1 receptor amounted to 3730 ± 272 nM. This molecule also yielded a Ki on 5HT2C receptor above 10000 nM. Moreover, the Ki on D2L receptor worked out at 782 ± 42 nM. Moreover, on D4 receptor, a half-maximal response (EC50) required 32.2 ± 2.51 nM and the “D4 % Maxm Stim” value is reported as 51.08 ± 1.72%. Moreover, on D3 receptor [1], the response was half-maximal at 110 ± 33.3 nM (EC50) and the Emax is 44.1 ± 11.6%.

For `O=C(NCCN(CCCCN1CCN(c2ccccc2)CC1)C1CCc2ccc(O)cc2C1)c1ccccc1` (stereo not shown) [Compound 10b, 7-Hydroxy-2-[N-(2-benzoylamino)ethyl-(N-(4-phenylpiperazin-1-yl)-butyl)amino]tetralin], the Ki was 2950 ± 238 nM at D1 receptor, above 10000 nM at 5HT2C receptor and 354 ± 2 nM on D2L receptor. Also, the EC50 on D4 receptor amounted to 26.7 ± 10.6 nM; on D3 receptor [1] it was 104 ± 57.3 nM. For the same molecule, the “D4 % Maxm Stim” value on D4 receptor was 71.36 ± 10.17%. The Emax on D3 receptor [1] is 50.9 ± 12.6%.

For `CCCN(CCCCN1CCN(c2ccccc2)CC1)C1CCc2ccc(O)cc2C1` (stereo not shown) [Compound 15b, 7-Hydroxyl-2-[N-propyl-(N-(4-phenylpiperazin-1-yl)-butyl)amino]tetralin], the Ki on D1 receptor was 6120 ± 933 nM; at 5HT2C receptor, above 10000 nM; at D2L receptor, 114 ± 8 nM; at D3 receptor [2], 3.79 ± 0.4 nM. Also, the EC50 at D4 receptor came to 22.5 ± 11 nM; on D3 receptor [1] it was 0.91 ± 0.46 nM. Also, the “D4 % Maxm Stim” value at D4 receptor worked out at 102.81 ± 20.21%. Moreover, the “agonist character at the D4 receptor” value on D4 receptor (functional assay) was “full agonists”. Also, the Emax at D3 receptor [1] was 74.9 ± 9.05%. Besides, the “agonist character at the D3 receptor” value on D3 receptor [1] (functional assay) is on record as “partial agonism”.
